Legend:
Alpha2A = target: T1, Alpha2A (Homo sapiens, UniProt P08913); experiment: PDSP radioligand binding, adrenoceptor α2A
T1 sequence (P08913 1-465): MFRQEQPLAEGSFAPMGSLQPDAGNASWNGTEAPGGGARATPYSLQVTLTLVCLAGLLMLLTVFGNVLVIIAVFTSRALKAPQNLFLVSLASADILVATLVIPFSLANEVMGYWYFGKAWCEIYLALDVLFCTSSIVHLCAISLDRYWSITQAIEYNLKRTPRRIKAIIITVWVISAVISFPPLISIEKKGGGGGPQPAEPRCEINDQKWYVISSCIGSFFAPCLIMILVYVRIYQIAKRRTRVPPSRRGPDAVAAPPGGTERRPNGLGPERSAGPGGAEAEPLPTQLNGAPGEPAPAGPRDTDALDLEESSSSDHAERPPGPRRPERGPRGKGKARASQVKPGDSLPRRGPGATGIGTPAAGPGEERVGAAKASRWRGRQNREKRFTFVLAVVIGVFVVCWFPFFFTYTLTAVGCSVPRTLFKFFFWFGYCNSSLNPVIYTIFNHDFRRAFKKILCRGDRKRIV
Description: (§1) [17] and http://pdsp.med.unc.edu/UNC-CH%20Protocol%20Book.pdf.

hDAT = hDAT (Homo sapiens, UniProt Q01959); experiment: PDSP radioligand binding, dopamine transporter
hDAT, sequence (Q01959 whole entry): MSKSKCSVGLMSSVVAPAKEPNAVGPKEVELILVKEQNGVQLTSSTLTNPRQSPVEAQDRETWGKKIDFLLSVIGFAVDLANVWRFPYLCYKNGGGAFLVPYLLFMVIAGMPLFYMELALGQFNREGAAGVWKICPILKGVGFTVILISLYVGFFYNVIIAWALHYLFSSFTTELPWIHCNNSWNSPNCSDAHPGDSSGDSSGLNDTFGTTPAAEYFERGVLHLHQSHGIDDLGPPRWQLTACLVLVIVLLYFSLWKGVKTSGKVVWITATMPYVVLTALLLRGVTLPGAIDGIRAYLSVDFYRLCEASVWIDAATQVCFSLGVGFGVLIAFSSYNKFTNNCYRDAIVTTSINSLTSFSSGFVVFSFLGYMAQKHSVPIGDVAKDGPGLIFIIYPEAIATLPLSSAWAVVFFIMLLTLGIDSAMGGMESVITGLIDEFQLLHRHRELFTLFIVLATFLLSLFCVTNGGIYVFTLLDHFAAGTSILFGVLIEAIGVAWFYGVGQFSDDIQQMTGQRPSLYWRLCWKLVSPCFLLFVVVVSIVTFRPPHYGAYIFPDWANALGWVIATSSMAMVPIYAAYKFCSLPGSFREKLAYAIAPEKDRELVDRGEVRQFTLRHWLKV
Description: as §1

[1] = target: NET (norepinephrine transporter) (Homo sapiens, UniProt P23975); experiment: PDSP radioligand binding, norepinephrine transporter; settings: for inhibition at 10 µM: quadruplicate, read-out: NET Primary Screen inhibition of binding
NET (norepinephrine transporter), sequence (P23975 whole entry, species assumed): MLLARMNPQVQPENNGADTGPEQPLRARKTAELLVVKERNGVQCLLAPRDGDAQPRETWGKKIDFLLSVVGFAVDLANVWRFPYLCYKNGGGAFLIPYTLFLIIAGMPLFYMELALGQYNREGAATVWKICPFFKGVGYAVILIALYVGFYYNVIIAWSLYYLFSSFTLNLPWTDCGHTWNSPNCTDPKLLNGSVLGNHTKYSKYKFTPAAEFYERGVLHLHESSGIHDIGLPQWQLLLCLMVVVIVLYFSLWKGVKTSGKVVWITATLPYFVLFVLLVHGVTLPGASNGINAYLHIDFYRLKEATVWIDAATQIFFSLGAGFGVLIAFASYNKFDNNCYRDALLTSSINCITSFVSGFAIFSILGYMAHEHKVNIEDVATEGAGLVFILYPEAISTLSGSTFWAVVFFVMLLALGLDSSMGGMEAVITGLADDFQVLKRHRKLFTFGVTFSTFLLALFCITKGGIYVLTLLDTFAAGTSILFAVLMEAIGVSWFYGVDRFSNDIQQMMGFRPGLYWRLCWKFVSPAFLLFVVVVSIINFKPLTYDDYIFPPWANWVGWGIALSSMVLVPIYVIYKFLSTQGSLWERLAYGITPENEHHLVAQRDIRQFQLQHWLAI
Description: as §1

D4 = target: T2, D4 (Homo sapiens, UniProt P21917); experiment: PDSP radioligand binding, dopamine receptor D4
T2 sequence (P21917 1-419): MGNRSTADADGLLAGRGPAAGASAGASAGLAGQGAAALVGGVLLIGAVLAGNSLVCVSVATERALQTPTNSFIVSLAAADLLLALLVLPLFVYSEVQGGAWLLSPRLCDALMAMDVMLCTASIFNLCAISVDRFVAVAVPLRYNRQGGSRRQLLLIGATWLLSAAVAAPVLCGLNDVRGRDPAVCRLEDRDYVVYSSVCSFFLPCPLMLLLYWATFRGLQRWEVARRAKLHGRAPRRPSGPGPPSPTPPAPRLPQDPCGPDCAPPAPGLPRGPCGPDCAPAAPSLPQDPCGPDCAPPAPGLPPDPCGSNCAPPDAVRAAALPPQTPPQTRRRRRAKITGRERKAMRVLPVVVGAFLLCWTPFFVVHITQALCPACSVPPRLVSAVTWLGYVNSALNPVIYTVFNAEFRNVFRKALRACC
Description: as §1

A2B4 = A2B4 (Rattus norvegicus, UniProt P12389+P12392); experiment: PDSP radioligand binding, nicotinic receptor α2 ß4
A2B4, sequence (P12389 28-511): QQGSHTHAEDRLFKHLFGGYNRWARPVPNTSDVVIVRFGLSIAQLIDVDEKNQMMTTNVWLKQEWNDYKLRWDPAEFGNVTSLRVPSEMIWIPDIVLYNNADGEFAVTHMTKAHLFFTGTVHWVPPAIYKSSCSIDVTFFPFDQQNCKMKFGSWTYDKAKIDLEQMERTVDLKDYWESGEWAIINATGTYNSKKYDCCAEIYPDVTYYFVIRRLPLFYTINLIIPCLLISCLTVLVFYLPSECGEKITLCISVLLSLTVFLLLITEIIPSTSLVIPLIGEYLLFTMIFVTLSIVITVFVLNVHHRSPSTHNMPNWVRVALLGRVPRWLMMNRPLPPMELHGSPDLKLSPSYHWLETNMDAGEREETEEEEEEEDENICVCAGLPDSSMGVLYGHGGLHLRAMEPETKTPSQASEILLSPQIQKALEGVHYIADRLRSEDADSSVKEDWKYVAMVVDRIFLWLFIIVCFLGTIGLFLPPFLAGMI
A2B4, sequence (P12392 21-495): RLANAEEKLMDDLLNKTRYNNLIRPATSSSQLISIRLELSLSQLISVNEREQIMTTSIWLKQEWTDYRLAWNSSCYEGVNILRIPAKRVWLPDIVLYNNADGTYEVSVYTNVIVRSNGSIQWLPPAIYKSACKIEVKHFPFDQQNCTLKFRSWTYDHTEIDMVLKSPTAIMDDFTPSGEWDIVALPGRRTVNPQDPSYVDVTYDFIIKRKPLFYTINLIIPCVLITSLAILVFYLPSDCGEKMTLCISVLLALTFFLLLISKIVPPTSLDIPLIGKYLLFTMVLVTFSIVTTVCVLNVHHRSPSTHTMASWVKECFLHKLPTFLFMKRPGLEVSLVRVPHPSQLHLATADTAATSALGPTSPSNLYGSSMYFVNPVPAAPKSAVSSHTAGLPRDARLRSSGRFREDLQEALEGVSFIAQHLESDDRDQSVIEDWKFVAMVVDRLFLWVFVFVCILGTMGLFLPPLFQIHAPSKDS
Description: as §1

PBR = PBR (Homo sapiens, UniProt P30536); experiment: PDSP radioligand binding, peripheral benzodiazepine receptor
PBR, sequence (P30536 whole entry, species assumed): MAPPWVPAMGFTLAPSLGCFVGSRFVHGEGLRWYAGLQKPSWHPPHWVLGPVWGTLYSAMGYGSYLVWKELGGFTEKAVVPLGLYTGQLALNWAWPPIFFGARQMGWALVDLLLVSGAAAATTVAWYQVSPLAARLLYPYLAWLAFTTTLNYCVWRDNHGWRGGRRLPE
Description: as §1

GABAA = experiment: PDSP radioligand binding, GABA-A; settings: Table S1; unit inferred
Description: as §1

Alpha1A = target: T3, Alpha1A (Homo sapiens, UniProt P35348); experiment: PDSP radioligand binding, adrenoceptor α1A
T3 sequence (P35348 1-466): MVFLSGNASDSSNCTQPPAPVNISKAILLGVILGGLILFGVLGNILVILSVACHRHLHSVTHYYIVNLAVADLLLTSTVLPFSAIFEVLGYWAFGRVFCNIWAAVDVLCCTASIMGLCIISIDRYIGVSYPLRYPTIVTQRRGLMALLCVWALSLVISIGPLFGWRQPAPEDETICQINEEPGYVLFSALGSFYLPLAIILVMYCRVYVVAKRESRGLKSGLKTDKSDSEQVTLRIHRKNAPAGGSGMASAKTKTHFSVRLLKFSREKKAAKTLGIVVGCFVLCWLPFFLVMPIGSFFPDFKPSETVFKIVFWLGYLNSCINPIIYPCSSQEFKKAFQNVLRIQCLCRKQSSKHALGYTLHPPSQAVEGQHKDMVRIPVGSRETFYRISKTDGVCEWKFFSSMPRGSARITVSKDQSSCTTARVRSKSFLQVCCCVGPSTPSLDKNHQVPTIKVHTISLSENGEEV
Description: as §1

A2B2 = A2B2 (Rattus norvegicus, UniProt P12389+P12390); experiment: PDSP radioligand binding, nicotinic receptor α2 ß2
A2B2, sequence (P12389 28-511): as the sequence (P12389 28-511) above
A2B2, sequence (P12390 25-500): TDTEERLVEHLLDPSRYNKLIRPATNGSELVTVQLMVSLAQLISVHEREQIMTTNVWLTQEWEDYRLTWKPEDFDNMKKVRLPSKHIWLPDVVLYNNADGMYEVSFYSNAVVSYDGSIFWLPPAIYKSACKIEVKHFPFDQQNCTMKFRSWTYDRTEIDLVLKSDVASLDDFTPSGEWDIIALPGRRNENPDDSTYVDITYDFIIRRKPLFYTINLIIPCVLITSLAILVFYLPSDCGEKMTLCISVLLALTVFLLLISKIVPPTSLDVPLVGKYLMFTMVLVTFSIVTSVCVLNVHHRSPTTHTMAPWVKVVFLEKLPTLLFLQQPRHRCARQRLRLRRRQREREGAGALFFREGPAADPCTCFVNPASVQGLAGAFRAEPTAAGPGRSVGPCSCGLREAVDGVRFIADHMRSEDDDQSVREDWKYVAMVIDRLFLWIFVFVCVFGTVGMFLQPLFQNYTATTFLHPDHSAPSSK
Description: as §1

M2 = target: T4, M2 (Homo sapiens, UniProt P08172); experiment: PDSP radioligand binding, muscarinic receptor M2
T4 sequence (P08172 1-466): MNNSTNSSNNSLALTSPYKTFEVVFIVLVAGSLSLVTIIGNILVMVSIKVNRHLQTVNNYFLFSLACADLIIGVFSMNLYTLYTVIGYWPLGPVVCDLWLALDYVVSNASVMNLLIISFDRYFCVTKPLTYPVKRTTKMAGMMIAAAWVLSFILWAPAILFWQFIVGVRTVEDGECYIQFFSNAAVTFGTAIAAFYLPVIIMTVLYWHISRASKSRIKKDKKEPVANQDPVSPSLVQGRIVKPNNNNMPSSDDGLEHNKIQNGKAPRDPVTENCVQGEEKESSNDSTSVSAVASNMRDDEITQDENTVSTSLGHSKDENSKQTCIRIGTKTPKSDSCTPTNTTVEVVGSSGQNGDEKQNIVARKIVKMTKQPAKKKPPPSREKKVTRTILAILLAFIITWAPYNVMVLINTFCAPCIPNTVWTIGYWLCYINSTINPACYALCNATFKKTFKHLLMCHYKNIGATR
Description: as §1

5-HT1A = target: T5, 5-HT1A (Homo sapiens, UniProt P08908); experiment: PDSP radioligand binding, serotonin receptor 5-HT1A
T5 sequence (P08908 1-422): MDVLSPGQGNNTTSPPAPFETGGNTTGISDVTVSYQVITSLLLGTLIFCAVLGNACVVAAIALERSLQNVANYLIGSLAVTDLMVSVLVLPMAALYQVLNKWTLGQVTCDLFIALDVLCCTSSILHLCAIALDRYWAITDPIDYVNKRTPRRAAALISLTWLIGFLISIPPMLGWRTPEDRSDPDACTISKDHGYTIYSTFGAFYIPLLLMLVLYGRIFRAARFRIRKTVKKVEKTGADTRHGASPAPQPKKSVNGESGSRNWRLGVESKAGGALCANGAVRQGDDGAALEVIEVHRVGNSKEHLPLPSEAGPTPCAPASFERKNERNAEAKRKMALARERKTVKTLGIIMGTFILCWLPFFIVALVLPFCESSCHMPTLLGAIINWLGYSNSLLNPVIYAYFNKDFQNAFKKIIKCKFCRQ
Description: as §1

5-HT1B = 5-HT1B (Homo sapiens, UniProt P28222); experiment: PDSP radioligand binding, serotonin receptor 5-HT1B
5-HT1B, sequence (P28222 whole entry, species assumed): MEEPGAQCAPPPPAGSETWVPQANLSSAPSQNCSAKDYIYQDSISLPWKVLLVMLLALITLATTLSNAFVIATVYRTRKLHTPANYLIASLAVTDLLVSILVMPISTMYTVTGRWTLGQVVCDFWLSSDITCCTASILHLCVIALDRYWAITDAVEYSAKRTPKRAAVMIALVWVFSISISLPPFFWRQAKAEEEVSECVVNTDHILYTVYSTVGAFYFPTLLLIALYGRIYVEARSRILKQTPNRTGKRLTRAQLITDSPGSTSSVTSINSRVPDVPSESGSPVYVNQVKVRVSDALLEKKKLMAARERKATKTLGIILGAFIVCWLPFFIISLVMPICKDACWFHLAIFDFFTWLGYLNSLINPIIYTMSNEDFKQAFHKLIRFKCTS
Description: as §1

CB2 = CB2 (Homo sapiens, UniProt P34972); experiment: PDSP radioligand binding, cannabinoid CB-2
CB2, sequence (P34972 whole entry, species assumed): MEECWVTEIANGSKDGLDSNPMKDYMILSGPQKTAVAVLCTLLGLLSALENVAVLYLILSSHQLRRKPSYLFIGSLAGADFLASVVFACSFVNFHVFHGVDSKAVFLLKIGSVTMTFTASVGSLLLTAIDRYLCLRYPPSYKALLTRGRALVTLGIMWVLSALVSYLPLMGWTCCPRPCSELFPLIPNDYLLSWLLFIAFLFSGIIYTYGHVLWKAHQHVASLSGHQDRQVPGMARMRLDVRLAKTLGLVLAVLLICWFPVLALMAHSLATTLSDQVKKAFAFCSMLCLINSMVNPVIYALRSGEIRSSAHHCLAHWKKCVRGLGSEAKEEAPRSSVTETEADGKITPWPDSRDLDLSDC
Description: as §1

5-HT2A = 5-HT2A (Homo sapiens, UniProt P28223); experiment: PDSP radioligand binding, serotonin receptor 5-HT2A
5-HT2A, sequence (P28223 whole entry): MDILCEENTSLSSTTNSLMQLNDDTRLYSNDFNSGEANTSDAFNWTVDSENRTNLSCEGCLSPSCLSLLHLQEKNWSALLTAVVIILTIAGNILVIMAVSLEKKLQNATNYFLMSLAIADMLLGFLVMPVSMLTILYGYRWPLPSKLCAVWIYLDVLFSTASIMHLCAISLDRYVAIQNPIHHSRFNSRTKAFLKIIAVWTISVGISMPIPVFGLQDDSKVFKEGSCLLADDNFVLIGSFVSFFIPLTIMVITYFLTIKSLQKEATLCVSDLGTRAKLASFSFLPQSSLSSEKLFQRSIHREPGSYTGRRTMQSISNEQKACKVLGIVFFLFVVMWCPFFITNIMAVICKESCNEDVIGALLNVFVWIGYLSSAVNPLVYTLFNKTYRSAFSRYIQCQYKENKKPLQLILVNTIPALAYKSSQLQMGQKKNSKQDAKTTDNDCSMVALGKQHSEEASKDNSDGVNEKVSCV
Description: as §1

A4B4 = A4B4 (Rattus norvegicus, UniProt P09483+P12392); experiment: PDSP radioligand binding, nicotinic receptor α4 ß4
A4B4, sequence (P09483 31-630): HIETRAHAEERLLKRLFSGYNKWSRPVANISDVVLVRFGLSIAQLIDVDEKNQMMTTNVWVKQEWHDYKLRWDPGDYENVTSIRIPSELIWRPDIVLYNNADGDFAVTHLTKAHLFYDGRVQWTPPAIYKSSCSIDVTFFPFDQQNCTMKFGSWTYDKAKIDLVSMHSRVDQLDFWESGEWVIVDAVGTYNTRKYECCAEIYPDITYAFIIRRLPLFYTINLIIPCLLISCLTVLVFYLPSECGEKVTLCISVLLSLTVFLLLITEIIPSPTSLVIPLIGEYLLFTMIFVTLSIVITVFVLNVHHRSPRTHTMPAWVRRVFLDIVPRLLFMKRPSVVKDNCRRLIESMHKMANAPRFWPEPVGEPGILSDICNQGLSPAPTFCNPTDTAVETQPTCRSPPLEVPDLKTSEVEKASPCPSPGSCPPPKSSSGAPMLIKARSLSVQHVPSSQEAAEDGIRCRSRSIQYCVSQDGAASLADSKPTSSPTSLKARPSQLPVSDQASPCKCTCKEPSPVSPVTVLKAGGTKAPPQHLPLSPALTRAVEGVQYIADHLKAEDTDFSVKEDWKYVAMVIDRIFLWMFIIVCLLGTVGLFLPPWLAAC
A4B4, sequence (P12392 21-495): as the sequence (P12392 21-495) above
Description: as §1

SMILES | Ki (Alpha2A) [µM] | Ki (hDAT) [µM] | Ki [1] [µM] | inhibition at 10 µM [1] [%] | Ki (D4) [µM] | Ki (A2B4) [µM] | Ki (PBR) [µM] | Ki (GABAA) [µM] | Ki (Alpha1A) [µM] | Ki (A2B2) [µM] | Ki (M2) [µM] | Ki (5-HT1A) [µM] | Ki (5-HT1B) [µM] | Ki (CB2) [µM] | Ki (5-HT2A) [µM] | Ki (A4B4) [µM]
CCNC1(c2cccc(OC)c2)CCCCC1=O (racemic) [Methoxetamine, (RS)-2-(ethylamino)-2-(3-methoxyphenyl)cyclohexanone] | > 10 | > 10 | > 10 | < 50 | > 10 | > 10 | > 10 | > 10 | > 10 | > 10 | > 10 | > 10 | > 10 | > 10 | > 10 | > 10
COc1cccc(C2(N3CCCCC3)CCCCC2)c1 [3-MeO-PCP, 1-[1-(3-methoxyphenyl)cyclohexyl]piperidine] | 0.964 | 0.743 | > 10 | < 50 | > 10 | > 10 | > 10 | > 10 | > 10 | > 10 | > 10 | > 10 | > 10 | > 10 | > 10 | > 10
COc1ccc(C2(N3CCCCC3)CCCCC2)cc1 [4-MeO-PCP, 1-[1-(4-methoxyphenyl)cyclohexyl]piperidine] | > 10 | > 10 | 0.713 | – | > 10 | > 10 | > 10 | > 10 | > 10 | > 10 | > 10 | > 10 | > 10 | > 10 | > 10 | > 10

Reference: publication PMC3602154 (PLoS ONE, 2013)
